Measured values from ChEMBL document CHEMBL4020759, “Sulfoximines as ATR inhibitors: Analogs of VE-821” (2017).
Active and inactive are the calls of the source. The rule behind the calls is not given here.

What was measured:
[1] = target: Serine/threonine-protein kinase ATR (Homo sapiens) (UniProt Q13535); assay: Inhibition of ATR in human U2OS cells assessed as reduction in hydroxyurea-induced Chk-1 phosphorylation at Ser345 residue by measuring ratio of GAPDH level to phosphorylated Chk-1 level at 3 uM preincubated for 1 hr followed by hydroxyurea challenge measured after 2 hrs by Western blot analysis; format: cell-based
Chain of Serine/threonine-protein kinase ATR (Homo sapiens) (Q13535 whole entry, looked up): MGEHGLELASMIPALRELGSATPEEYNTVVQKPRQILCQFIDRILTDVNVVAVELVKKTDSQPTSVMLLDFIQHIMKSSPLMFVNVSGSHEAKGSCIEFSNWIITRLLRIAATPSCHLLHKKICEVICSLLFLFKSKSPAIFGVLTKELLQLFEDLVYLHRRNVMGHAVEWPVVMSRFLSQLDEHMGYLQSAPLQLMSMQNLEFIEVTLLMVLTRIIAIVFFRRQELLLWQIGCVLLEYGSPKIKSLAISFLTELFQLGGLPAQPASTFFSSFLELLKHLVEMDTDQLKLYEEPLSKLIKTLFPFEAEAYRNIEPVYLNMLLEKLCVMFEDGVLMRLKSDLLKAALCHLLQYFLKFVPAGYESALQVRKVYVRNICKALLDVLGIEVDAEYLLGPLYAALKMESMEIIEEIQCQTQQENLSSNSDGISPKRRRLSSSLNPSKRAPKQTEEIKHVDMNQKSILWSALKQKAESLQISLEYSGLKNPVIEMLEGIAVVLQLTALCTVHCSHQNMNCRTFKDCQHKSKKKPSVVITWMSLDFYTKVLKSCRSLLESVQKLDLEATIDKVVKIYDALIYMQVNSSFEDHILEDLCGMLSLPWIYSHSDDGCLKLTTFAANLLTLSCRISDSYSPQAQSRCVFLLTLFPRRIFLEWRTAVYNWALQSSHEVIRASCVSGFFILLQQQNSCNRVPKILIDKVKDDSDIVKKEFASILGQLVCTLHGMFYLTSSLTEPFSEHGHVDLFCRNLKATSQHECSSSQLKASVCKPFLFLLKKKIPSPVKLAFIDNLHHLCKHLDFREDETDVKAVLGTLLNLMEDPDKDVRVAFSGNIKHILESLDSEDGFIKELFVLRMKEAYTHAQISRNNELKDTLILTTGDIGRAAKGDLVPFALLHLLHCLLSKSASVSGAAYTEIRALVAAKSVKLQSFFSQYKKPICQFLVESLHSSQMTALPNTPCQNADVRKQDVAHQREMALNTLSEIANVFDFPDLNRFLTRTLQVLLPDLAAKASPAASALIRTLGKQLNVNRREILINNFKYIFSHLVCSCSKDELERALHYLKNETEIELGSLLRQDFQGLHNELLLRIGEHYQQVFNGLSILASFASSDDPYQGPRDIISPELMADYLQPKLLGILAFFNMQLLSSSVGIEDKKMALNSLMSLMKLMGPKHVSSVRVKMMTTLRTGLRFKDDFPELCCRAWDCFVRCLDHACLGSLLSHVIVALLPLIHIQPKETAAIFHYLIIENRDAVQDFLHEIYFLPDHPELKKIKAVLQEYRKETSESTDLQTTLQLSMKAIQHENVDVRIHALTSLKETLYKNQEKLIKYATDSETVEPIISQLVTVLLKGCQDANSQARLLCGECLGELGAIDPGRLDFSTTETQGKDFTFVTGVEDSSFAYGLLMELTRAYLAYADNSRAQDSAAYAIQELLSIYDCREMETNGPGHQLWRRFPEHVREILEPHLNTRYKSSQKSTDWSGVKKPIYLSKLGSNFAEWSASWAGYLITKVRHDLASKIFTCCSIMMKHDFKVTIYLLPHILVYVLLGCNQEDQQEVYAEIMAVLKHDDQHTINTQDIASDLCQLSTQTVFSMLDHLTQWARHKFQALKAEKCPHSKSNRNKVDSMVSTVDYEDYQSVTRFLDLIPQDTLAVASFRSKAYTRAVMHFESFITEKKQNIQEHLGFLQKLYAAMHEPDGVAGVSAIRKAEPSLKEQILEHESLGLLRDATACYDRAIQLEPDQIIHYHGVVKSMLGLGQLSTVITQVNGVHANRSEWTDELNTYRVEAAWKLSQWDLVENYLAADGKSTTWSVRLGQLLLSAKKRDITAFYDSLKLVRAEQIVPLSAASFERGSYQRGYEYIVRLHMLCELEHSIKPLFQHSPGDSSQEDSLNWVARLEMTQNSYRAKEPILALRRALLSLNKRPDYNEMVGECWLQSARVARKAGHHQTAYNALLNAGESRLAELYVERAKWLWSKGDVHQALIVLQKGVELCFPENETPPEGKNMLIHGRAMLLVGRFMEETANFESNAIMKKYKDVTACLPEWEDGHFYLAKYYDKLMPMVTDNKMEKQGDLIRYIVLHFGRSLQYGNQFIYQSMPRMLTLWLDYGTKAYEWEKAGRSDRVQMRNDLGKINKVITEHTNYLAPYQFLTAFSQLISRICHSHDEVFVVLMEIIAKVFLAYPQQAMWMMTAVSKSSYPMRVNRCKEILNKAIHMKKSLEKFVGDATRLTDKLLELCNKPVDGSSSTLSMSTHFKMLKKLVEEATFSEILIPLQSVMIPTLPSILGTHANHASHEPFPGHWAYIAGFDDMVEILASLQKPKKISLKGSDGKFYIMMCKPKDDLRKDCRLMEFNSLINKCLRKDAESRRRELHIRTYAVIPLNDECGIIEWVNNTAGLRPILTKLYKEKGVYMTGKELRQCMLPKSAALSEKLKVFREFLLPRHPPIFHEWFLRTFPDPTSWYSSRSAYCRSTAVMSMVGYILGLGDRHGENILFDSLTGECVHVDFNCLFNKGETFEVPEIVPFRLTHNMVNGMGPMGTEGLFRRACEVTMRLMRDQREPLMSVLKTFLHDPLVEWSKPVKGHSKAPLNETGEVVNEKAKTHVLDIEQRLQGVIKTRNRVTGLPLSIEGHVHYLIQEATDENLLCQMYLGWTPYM

[2] = target: Serine-protein kinase ATM (Homo sapiens) (UniProt Q13315); assay: Inhibition of ATM in human U2OS cells assessed as reduction in hydroxyurea-induced H2AX phosphorylation at Ser139 residue at 3 to 10 uM preincubated for 1 hr followed by hydroxyurea challenge measured after 2 hrs by Western blot analysis; format: cell-based
[3] = target: Serine/threonine-protein kinase ATR (Homo sapiens) (UniProt Q13535); assay: Inhibition of ATR in human Ramos cells assessed as reduction in […] at 10 uM after 48 hrs by Western blot analysis; format: cell-based
[4] = target: Serine/threonine-protein kinase ATR (Homo sapiens) (UniProt Q13535); assay: Inhibition of ATR in human U2OS cells assessed as reduction in hydroxyurea-induced Chk-1 phosphorylation at Ser345 residue by measuring ratio of GAPDH level to phosphorylated Chk-1 level at 10 uM preincubated for 1 hr followed by hydroxyurea challenge measured after 2 hrs by Western blot analysis; format: cell-based
Ramos = assay: Induction of apoptosis in human Ramos cells assessed as increase PARP-1 cleavage at 10 uM after 48 hrs by Western blot analysis; format: functional, cell-based
[5] = target: Serine/threonine-protein kinase ATR (Homo sapiens) (UniProt Q13535); assay: Inhibition of ATR in human U2OS cells assessed as reduction in etoposide-induced Chk-1 phosphorylation at Ser345 residue at 10 uM preincubated for 1 hr followed by etoposide challenge measured after 20 mins by Western blot analysis; format: cell-based
[6] = target: Serine-protein kinase ATM (Homo sapiens) (UniProt Q13315); assay: Inhibition of ATM in human U2OS cells assessed as reduction in etoposide-induced Chk-2 phosphorylation at Thr68 residue at 10 uM preincubated for 1 hr followed by etoposide challenge measured after 20 mins by Western blot analysis; format: cell-based
[7] = target: Serine/threonine-protein kinase ATR (Homo sapiens) (UniProt Q13535); assay: Inhibition of ATR in human U2OS cells assessed as reduction in hydroxyurea-induced Chk-1 phosphorylation at Ser345 residue at 10 uM preincubated for 1 hr followed by hydroxyurea challenge measured after 1 hr by Western blot analysis; format: cell-based
[8] = target: Serine-protein kinase ATM (Homo sapiens) (UniProt Q13315); assay: Inhibition of ATM in human U2OS cells assessed as reduction in hydroxyurea-induced Chk-2 phosphorylation at Thr68 residue at 10 uM preincubated for 1 hr followed by hydroxyurea challenge measured after 1 hr by Western blot analysis; format: cell-based
[9] = target: Serine/threonine-protein kinase ATR (Homo sapiens) (UniProt Q13535); assay: Inhibition of ATR in human U2OS cells assessed as reduction in hydroxyurea-induced H2AX phosphorylation at Ser139 residue at 3 to 10 uM preincubated for 1 hr followed by hydroxyurea challenge measured after 2 hrs by Western blot analysis; format: cell-based
[10] = target: Serine/threonine-protein kinase ATR (Homo sapiens) (UniProt Q13535); assay: Inhibition of ATR in human U2OS cells assessed as reduction in hydroxyurea-induced Chk-1 phosphorylation at Ser345 residue preincubated for 1 hr followed by hydroxyurea challenge measured after 2 hrs by Western blot analysis; format: cell-based

SMILES	Ratio [1]	inhibition [2]	inhibition [3]	Ratio [4]	Activity (Ramos)	inhibition [5]	inhibition [6]	inhibition [7]	inhibition [8]	inhibition [9]	inhibition [10]
CS(=O)(=O)c1ccc(-c2cnc(N)c(C(=O)Nc3ccccc3)n2)cc1	13	inactive	Active	16.3	Active	Active	inactive	–	–	–	–
CN=S(C)(=O)c1ccc(-c2cnc(N)c(C(=O)Nc3ccccc3)n2)cc1 (centres undefined)	46.1	inactive	Active	36.4	Active	Active	inactive	Active	inactive	Dose-dependent effect	Dose-dependent effect
CS(=N)(=O)c1ccc(-c2cnc(N)c(C(=O)Nc3ccccc3)n2)cc1 (centres undefined)	28.3	inactive	Active	21.1	Active	Active	inactive	Active	inactive	Dose-dependent effect	Dose-dependent effect
